Values quoted from earlier work as cited in article PMC140124 (Biological Procedures Online, 1998).
Where two headings read alike, the source gives them in different places.

Compound: L-tyrosyl-L-arginine [KTP]
- appearance on the serosal side (absence of peptidase inhibitors, ref [2]): did not appear on the serosal side
- appearance on the serosal side (presence of peptidase inhibitors such as o-phenanthrolin, tryptophan hydroxamate and bestatin, ref [2]): appeared on the serosal side

Compound: O=S1(=O)OC(c2ccc(O)cc2)(c2ccc(O)cc2)c2ccccc21 [phenol red]
- change of absorption clearance (presence of peptidase inhibitors, ref [1]): did not increase

Compound: L-tyrosyl-D-arginine [D-KTP]
- absorption clearance (the overall transport clearance) (rat everted jejunum, peptidase-resistant isomer, ref [2]): 0.516 µL/min/cm
